Assays:
NMDAR2B = biological target: T1, NMDAR2B (Homo sapiens, UniProt Q13224); experiment: NMDAR agonist assay, [3H]MK-801 binding, NMDAR2B expressing HEK cell membranes; assay type: biochemical; conditions: 50 μM glutamate; for EC50: read-out: NMDAR2B B: log EC50 (converted)
T1 construct: expressed in transfected cells; host or cells: HEK cells (membrane extract)
Procedure: (§1) Assays were conducted as described by Moskal et al., “GLYX-13: a monoclonal antibody-derived peptide that acts as an N-methyl-D-aspartate receptor modulator,” Neuropharmacology, 49, 1077-87, 2005. These studies were designed to determine if the test compounds act to facilitate NMDAR activation in NMDAR2A, NMDAR2B, NMDAR2C or NMDAR2D expressing HEK cell membranes as measured by increases in [3H]MK-801 binding.
(§2) In the assay, 300 μg of NMDAR expressing HEK cell membrane extract protein was preincubated for 15 minutes at 25° C. in the presence of saturating concentrations of glutamate (50 μM) and varying concentrations of test compound (1×10^−15M-1×10^−7M), or 1 mM glycine. Following the addition of 0.3 μCi of [3H]MK-801 (22.5 Ci/mmol), reactions were again incubated for 15 minutes at 25° C. (nonequilibrium conditions). Bound and free [3H]MK-801 were separated via rapid filtration using a Brandel apparatus.
(§3) In analyzing the data, the DPM (disintegrations per minute) of [3H]MK-801 remaining on the filter were measured for each concentration of test compound or for 1 mM glycine. The DPM values for each concentration of a ligand (N=2) were averaged. The baseline value was determined from the best fit curve of the DPM values modeled using the GraphPad program and the log(agonist) vs. response(three parameters) algorithm was then subtracted from all points in the dataset. The % maximal [3H]MK-801 binding was then calculated relative to that of 1 mM glycine: all baseline subtracted DPM values were divided by the average value for 1 mM glycine. The EC50 and % maximal activity were then obtained from the best fit curve of the % maximal [3H]MK-801 binding data modelled using the GraphPad program and the log(agonist) vs. response(three parameters) algorithm.
(§4) The tables below summarize the results for the wild type NMDAR agonists NMDAR2A, NMDAR2B, NMDAR2C, and NMDAR2D, and whether the compound is not an agonist (−), is an agonist (+), or is a strong agonist (++), where column A is based on the % maximal [3H]MK-801 binding relative to 1 mM glycine (−=0; <100%=+; and >100%=++); and column B is based on log EC50 values (0=−; >1×10^−9 M (e.g., −8)=+; and <1×10^−9 M (e.g., −10)++).

[1] = Microsomal stability (Human); assay type: in vitro ADME; conditions: human microsomes, after 60 minutes
Procedure: (§5) Microsomal stability of disclosed compounds was investigated. The following table indicates the percent of compound remaining after 60 minutes.

Plasma stability (Rat) = assay type: in vitro ADME; conditions: after 60 minutes
Procedure: (§6) Plasma stability of disclosed compounds was investigated. The following table indicates the percent of compound remaining after 60 minutes.

[2] = Oral pharmacokinetics in rats (plasma, brain, CSF); assay type: in vivo, Sprague Dawley rats; conditions: rat, oral gavage, 10 mg/kg; for bioavailability / AUC(0-t) / Cmax / Tmax: Sprague Dawley, plasma
Procedure: In another experiment, Sprague Dawley rats were dosed per os (oral gavage) using a normal saline formulation containing 10 mg/kg of the compounds identified in the table below. Plasma, brain, and CSF samples were analyzed at various time points over a 24 hour period. The table below summarizes the results of the oral pharmacokinetics, where the first three values (Tmax, Cmax and AUClast) are plasma values.

Plasma stability (Human) = assay type: in vitro ADME; conditions: after 60 minutes
Procedure: as §6

[3] = Microsomal stability (Rat); assay type: in vitro ADME; conditions: rat microsomes, after 60 minutes
Procedure: as §5

[4] = IV pharmacokinetics in rats; conditions: Sprague Dawley, in vivo, rat, 2 mg/kg, normal saline; for Vd: read-out: Vss
Procedure: Sprague Dawley rats were dosed intravenously using a normal saline formulation containing 2 mg/kg of the compounds identified in the below table. The table below summarizes the results of the IV pharmacokinetics.

NMDAR2D [5] = biological target: T2, NMDAR2D (Homo sapiens, UniProt O15399+Q05586); experiment: NMDAR agonist assay, [3H]MK-801 binding, NMDAR2D expressing HEK cell membranes; assay type: biochemical; conditions: 50 μM glutamate, read-out: NMDAR2D B: log EC50 (converted)
T2 construct: expressed in transfected cells; host or cells: HEK cells (membrane extract)
Procedure: as §1, §2, §3, §4

NMDAR2D [6] = biological target: T3, NMDAR2D (Homo sapiens, UniProt O15399); experiment: as above; assay type: biochemical; conditions: 50 μM glutamate
T3 construct: expressed in transfected cells; host or cells: HEK cells (membrane extract)
Procedure: as §1, §2, §3, §4

NMDAR2A = biological target: T4, NMDAR2A (Homo sapiens, UniProt Q12879); experiment: NMDAR agonist assay, [3H]MK-801 binding, NMDAR2A expressing HEK cell membranes; assay type: biochemical; parameters: key to NMDAR2A B: log EC50: 0=−; >1×10^−9 M (e.g., −8)=+; <1×10^−9 M (e.g., −10)++; conditions: 50 μM glutamate; for EC50: read-out: NMDAR2A B: log EC50 (converted)
T4 construct: expressed in transfected cells; host or cells: HEK cells (membrane extract)
Procedure: as §1, §2, §3, §4

Sprague Dawley rats = experiment: Bennett nerve injury assay (mechanical analgesia, paw withdrawal threshold); assay type: in vivo; conditions: 150 mg/kg PO
Procedure: The Bennett model of mechanical analgesia is used to assess the analgesic effects of compounds as measured by paw withdrawal threshold. Bennett G J, Xie Y K, “A peripheral mononeuropathy in rat that produces disorders of pain sensation like those seen in man,” Pain 33:87-107, 1988. […] Vehicle animals receive the surgery and then receive vehicle rather than test compound. Animals were tested 1 hr, 24 h and 1 wk post-test compound or vehicle administration.
Male 2-3 month old Sprague Dawley rats were used. Harlan was the supplier for all studies. Rats were housed in Lucite cages with aspen wood chip bedding, maintained on a 12:12 light:dark cycle (lights on at 5 AM), and given ad libitum access to Purina lab chow (USA) and tap water throughout the study.
Rats were anesthetized using inhaled isoflurane (2.5%). Sciatic nerve chronic constriction nerve injury surgery was performed as previously described (Bennett and Xie, 1988). An incision (˜1.5 cm in length) was made with a scalpel blade dorsally through skin on the right hind limb, parallel and posterior to femur. Using a small pointed hemostat, the biceps femoris and gluteus superficialis muscles were separated. Using curved blunt forceps, the common sciatic nerve was isolated and exposed. For the mechanical analgesia studies, the whole sciatic nerve was ligated. Using hemostats/forceps and chromic gut (5-0), the nerve was loosely ligated with a square knot; 3 ligatures, 1 mm apart were placed on the nerve. […] Testing occurred approximately 2 weeks post-surgery.
During testing, rats were acclimated to the surface of a suspended wire mesh grid (1 cm×1 cm, with the wire being 0.3 cm in diameter) for 15-20 min. Starting from the smallest, each Von Frey filament was pressed perpendicularly to the plantar surface of the affected (ipsilateral) hind paw until slightly bent and then held for 6 second. If an obvious hind paw withdrawal or a flinching behavior immediately after the withdrawal of the filament was not observed, the next larger filament was used in the same manner. In case of a response, a lower filament was used. This was repeated until six responses were collected.
For all studies, animals were baselined prior to study start to test for allodynia (defined as a paw withdrawal threshold under 5). A subset of animals was tested with gabapentin (150 mg/kg, PO) to ensure at least 50% analgesia. Once it was confirmed animals were ready for study initiation, animals were balanced across groups. All study investigators were blind to treatment conditions. Animals were dosed with 0.1, 1 or 10 mg/kg of test compound via oral gavage (PO), control sets of animals were dosed with gabapentin (150 mg/kg, PO) or vehicle (0.5% Na-CMC in 0.9% sterile saline, PO). Testing occurred 1 h post-dosing with animals retested 24 hrs and 1 week post-dosing. The percent analgesia calculations for each animal were made using the following equation: % analgesia=[(log(x)−y)/((log (z)−y)]*100, where x=the paw withdrawal threshold for the drug-treated animal in grams, y=the average of the log(x) values for the vehicle treated group, and z=the paw withdrawal threshold for naïve animals in grams (historical value of 15 used). The results for Compound AD, where the percentage of analgesia is measured at 1 hour, 24 hours, and 1 week after compound administration are as follows: for 0.1 mg/kg dose: 38.7% at 1 h, 34.5% at 24 h, and 19.7% at 1 wk; for 1 mg/kg dose: 24.1% at 1 h, 26.5% at 24 h, and 13.2% at 1 wk; and for 10 mg/kg dose: 61.2% at 1 h, 45.1% at 24 h, and 39.5% at 1 wk.

T1 sequence (Q13224 27-1484, species assumed, other chains not shown): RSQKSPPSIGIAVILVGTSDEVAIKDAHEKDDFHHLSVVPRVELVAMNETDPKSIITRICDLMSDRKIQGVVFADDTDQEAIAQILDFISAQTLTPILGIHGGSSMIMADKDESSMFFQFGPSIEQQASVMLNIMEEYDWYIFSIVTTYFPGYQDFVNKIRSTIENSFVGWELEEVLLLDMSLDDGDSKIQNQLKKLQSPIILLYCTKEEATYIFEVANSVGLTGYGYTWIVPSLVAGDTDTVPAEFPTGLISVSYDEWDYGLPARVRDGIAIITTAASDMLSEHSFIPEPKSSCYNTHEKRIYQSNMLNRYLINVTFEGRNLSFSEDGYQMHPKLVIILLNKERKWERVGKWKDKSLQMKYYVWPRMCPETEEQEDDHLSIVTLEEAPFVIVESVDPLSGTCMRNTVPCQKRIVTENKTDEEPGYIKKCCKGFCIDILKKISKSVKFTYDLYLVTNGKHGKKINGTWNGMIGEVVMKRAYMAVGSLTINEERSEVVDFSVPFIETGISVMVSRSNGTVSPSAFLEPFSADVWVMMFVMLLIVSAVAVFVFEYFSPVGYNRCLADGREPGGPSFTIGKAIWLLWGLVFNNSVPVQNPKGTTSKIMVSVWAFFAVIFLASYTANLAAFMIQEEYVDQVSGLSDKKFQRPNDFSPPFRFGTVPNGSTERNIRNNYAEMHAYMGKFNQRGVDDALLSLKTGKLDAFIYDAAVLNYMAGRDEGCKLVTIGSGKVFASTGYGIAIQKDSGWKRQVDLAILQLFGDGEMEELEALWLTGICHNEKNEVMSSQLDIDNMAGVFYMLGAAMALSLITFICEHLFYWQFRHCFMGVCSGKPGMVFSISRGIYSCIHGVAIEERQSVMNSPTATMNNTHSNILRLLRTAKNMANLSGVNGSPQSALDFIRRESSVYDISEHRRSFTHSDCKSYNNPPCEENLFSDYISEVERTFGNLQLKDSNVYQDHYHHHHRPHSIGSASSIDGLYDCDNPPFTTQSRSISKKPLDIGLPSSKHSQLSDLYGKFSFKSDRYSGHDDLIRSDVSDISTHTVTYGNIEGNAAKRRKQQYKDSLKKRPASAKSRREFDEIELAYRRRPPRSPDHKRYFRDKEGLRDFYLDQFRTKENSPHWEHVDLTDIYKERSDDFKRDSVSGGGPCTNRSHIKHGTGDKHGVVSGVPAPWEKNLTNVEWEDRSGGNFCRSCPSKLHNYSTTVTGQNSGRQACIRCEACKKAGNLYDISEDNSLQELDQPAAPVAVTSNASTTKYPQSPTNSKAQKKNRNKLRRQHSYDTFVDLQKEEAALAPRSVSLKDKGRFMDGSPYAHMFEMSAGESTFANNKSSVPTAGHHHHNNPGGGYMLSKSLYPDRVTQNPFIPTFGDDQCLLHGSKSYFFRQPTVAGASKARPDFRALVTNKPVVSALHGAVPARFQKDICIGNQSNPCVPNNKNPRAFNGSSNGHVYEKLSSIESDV
T4 sequence (Q12879 23-1464, species assumed, other chains not shown): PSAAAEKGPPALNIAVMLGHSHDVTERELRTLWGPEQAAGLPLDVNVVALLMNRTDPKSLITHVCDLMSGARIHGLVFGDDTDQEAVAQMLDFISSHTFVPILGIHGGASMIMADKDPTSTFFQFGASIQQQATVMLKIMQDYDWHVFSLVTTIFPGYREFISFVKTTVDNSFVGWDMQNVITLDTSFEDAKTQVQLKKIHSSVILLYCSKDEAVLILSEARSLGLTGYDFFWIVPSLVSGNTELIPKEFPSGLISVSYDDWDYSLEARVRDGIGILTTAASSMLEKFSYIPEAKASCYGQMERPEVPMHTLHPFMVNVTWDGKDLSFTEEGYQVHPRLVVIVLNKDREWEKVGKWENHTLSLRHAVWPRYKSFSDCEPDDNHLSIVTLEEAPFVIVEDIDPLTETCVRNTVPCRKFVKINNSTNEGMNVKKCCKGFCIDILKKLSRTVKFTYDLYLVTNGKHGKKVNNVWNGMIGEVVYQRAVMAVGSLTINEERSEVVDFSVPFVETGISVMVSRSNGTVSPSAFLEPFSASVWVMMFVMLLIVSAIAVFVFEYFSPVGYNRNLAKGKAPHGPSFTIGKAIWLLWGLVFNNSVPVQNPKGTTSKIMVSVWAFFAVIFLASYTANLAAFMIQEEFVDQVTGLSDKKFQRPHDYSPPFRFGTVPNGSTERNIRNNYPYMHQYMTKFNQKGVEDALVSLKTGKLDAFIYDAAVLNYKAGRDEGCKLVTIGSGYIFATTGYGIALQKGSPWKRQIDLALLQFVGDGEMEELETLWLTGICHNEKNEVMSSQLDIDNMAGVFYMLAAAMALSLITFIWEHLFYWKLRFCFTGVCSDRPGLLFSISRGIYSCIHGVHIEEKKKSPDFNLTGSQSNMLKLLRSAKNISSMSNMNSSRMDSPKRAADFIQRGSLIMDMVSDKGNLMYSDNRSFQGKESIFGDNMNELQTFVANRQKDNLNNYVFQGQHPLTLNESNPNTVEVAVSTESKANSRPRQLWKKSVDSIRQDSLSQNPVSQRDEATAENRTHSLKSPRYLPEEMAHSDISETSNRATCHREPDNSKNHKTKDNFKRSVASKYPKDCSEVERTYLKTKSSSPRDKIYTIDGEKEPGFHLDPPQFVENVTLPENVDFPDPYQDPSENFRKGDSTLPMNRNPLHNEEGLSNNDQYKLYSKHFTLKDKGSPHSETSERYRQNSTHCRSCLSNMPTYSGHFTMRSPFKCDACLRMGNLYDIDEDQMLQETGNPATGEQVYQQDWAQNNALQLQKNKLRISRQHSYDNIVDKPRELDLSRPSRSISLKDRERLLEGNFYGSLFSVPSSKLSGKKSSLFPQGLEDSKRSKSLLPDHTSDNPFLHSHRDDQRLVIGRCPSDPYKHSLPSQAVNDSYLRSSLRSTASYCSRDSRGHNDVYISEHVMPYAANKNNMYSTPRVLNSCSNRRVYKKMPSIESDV
T3 sequence (O15399 28-1336, species assumed, other chains not shown): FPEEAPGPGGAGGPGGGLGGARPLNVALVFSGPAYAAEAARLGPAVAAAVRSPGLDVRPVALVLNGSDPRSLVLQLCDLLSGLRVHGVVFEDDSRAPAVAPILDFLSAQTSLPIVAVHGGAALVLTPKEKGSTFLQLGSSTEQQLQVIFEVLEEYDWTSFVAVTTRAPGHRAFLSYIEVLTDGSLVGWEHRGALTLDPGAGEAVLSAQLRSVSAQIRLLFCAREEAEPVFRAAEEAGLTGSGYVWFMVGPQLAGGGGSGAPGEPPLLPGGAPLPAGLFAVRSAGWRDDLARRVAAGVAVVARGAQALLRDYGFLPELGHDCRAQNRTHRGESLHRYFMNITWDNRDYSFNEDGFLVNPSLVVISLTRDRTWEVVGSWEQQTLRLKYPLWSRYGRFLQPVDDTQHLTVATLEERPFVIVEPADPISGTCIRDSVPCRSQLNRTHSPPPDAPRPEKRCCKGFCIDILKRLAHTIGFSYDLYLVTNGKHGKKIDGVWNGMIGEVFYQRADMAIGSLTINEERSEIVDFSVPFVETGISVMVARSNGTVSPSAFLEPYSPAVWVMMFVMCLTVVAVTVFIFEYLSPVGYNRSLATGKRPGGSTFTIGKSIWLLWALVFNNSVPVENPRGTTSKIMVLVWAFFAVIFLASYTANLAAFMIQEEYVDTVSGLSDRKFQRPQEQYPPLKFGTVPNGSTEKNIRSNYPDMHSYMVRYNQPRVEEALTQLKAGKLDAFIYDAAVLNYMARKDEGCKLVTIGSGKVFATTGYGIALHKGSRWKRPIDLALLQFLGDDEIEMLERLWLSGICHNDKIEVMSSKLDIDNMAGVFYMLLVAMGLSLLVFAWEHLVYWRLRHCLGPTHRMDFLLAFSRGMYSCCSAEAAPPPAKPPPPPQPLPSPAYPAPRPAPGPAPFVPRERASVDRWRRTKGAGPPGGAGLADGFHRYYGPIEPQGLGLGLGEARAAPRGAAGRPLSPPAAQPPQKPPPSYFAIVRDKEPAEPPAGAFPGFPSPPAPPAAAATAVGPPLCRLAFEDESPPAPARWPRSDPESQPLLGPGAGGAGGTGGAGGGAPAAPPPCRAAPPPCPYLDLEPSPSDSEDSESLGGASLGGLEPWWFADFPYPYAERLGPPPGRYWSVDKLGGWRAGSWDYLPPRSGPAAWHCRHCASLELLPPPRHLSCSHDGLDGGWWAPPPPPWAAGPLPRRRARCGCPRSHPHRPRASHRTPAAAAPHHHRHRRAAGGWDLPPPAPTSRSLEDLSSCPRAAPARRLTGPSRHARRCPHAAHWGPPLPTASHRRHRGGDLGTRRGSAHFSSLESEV
T2 sequence (O15399 28-1336, species assumed, other chains not shown): as above

SMILES	NMDAR2B A: % maximal [3H]MK-801 binding relative to 1 mM glycine (NMDAR2B)	EC50 (NMDAR2B)	Microsomal (Human): percent of compound remaining [1]	Plasma (Rat): percent of compound remaining (Plasma stability (Rat))	bioavailability [2]	AUC(0-t) [2]	Cmax [2]	Tmax [2]	CSF Cmax [2]	Brain Cmax [2]	Plasma (Human): percent of compound remaining (Plasma stability (Human))	Microsomal (Rat): percent of compound remaining [3]	AUC(0-t) [4]	Cmax [4]	clearance [4]	half-life [4]	Vd [4]	NMDAR2A A: % maximal [3H]MK-801 binding relative to 1 mM glycine (NMDAR2A)	EC50 (NMDAR2A)	also measured
O=C(O)C(F)(F)F.O=C1NCCCC12CCNCC2 [AA, 2,9-diazaspiro[5.5]undecan-1-one]	+ (<100%=+)	< 1 nM	96%	84%	18%	1020 ng·h/mL	325 ng/mL	2.11 h	12 ng/mL	0 ng/mL	97%	91%	1160 ng·h/mL	2660 ng/mL	28.4 mL/min/kg	2 h	1.76 L/kg	− (−=0)		EC50 (NMDAR2D [5]): < 1 nM; NMDAR2D A: % maximal [3H]MK-801 binding relative to 1 mM glycine (NMDAR2D [6]): ++ (>100%=++); NMDAR2A B: log EC50 (NMDAR2A): −
CC(C)(C)OC(=O)N1CCC2(CCCNC2=O)CC1 [AC, tert-butyl 1-oxo-2,9-diazaspiro[5.5]undecane-9-carboxylate]	+ (<100%=+)	< 1 nM	100%	100%	44%	1860 ng·h/mL	3630 ng/mL	0.25 h	261 ng/mL	298 ng/mL	100%	96%	845 ng·h/mL	5660 ng/mL	39.5 mL/min/kg	0.12 h	0.31 L/kg	+ (<100%=+)	> 1 nM	
O=C1NCCCCC12CCNCC2 [AG, 3,8-diazaspiro[5.6]dodecan-7-one]	+ (<100%=+)	< 1 nM																+ (<100%=+)	< 1 nM	
NCC1(CC(=O)O)CCCCC1 [gabapentin, reference compound]																				% analgesia (Sprague Dawley rats; 1 week post-administration, control group of the study): under 5%; % analgesia (Sprague Dawley rats; 1 wk, example (typical) control values): 0%; % analgesia (Sprague Dawley rats; 1 h, example (typical) control values): 77%; % analgesia (Sprague Dawley rats; 1 h post-administration, control group of the study): at least 50%; % analgesia (Sprague Dawley rats; 24 h, example (typical) control values): 17%; % analgesia (Sprague Dawley rats; 24 h post-administration, control group of the study): under 5%

Source: US11578072B2, “Spiro-lactam NMDA receptor modulators and uses thereof” (Aptinyx Inc., priority 2018, dated 2023)
